The term Kd denotes a measure of binding affinity in units of concentration. A high value points to lower affinity. In general, IC50 refers to the point on the concentration scale where inhibition reaches its midpoint.

Molecules are shown by their SMILES.

For two compounds, binding, Kd and IC50 results are on record in PMC11890061 (2025).

In experiment [1] the test system is FAM-D-(UG)12 mut1 (RNA, single strand) UGUAUGUGUAUGUGUAUGUGUAUG
As to the kind of experiment: NMM staining of native gel. The note with it: 150 mM KCl (gel: 50 mM potassium acetate); 10 mM Tris-HCl pH 7.5; 2.5 μM oligo; 1 μg/mL NMM highest tested; no band.

Experiment [2] concerns D-apt3.1h (RNA, aptamer) GCCGCACUGGUGGGUCGGUGGGGAGCGGC
As to the kind of experiment: ligand fluorescence enhancement. The following applies: 150 mM KCl; 10 mM LiCaco pH 7.0; 1 μM RNA, 1 μM ligand; higher in K+ than Li+.

For experiment [3], the system named is D-apt3.1 (RNA, aptamer) GCCGCACUGGUGGGUCGGUGGGAAGCGGC
As to the kind of experiment: ligand fluorescence enhancement. The following applies: 150 mM KCl; 10 mM LiCaco pH 7.0; 1 μM RNA, 1 μM ligand; higher in K+ than Li+.

Experiment [4] has as its system FAM-D-(UG)12 mut2 (RNA, single strand) UGUGCGUGUGCGUGUGCGUGUGCG
The experiment is described as follows: NMM staining of native gel. The following applies: 150 mM KCl (gel: 50 mM potassium acetate); 10 mM Tris-HCl pH 7.5; 2.5 μM oligo; 1 μg/mL NMM highest tested; no band.

Experiment [5] concerns D-apt3.1b (RNA, aptamer) GCCGCACUUCUGGGGGGGUGGGAAGCGGC
The experiment is described as follows: ligand fluorescence enhancement. The following applies: 150 mM KCl; 10 mM LiCaco pH 7.0; 1 μM RNA, 1 μM ligand; higher in K+ than Li+.

Experiment [6] has as its system D-apt3.1g (RNA, aptamer) GCCGCACUGGCGGGUCGGUGGGAAGCGGC
As to the kind of experiment: ligand fluorescence enhancement. The note with it: 150 mM KCl; 10 mM LiCaco pH 7.0; 1 μM RNA, 1 μM ligand; higher in K+ than Li+.

Experiment [7] deals with D-(UG)12 (RNA, G4) UGUGUGUGUGUGUGUGUGUGUGUG
The experiment is described as follows: fluorescence titration (microplate reader). The note with it: 150 mM KCl, 1 mM MgCl2; 25 mM Tris-HCl pH 7.5, 37 °C; 100 nM NMM, RNA varied; one-site fit.

The test system of experiment [8] is D-apt3.1e (RNA, aptamer) GCCGCAAUGGUGGGUAGGUGGGAAGCGGC
As to the kind of experiment: ligand fluorescence enhancement. The following applies: 150 mM KCl; 10 mM LiCaco pH 7.0; 1 μM RNA, 1 μM ligand; higher in K+ than Li+.

For experiment [9], the system named is FAM-D-(UG)12 (RNA, G4) UGUGUGUGUGUGUGUGUGUGUGUG
As to the kind of experiment: EMSA competition. The note with it: 150 mM KCl, 1 mM MgCl2; 25 mM Tris-HCl pH 7.5, 37 °C; 250 nM L-apt3.1 (L-RNA aptamer) displaced; 10 nM RNA. (In general: A gel shift assay detects complexes by their altered migration in electrophoresis.)

The test system of experiment [10] is FAM-D-(TG)12 (DNA, single strand) TGTGTGTGTGTGTGTGTGTGTGTG
As to the kind of experiment: NMM staining of native gel. The following applies: 150 mM KCl (gel: 50 mM potassium acetate); 10 mM Tris-HCl pH 7.5; 2.5 μM oligo; 1 μg/mL NMM highest tested; no band.

Experiment [11] has as its system L-apt3.1 (L-RNA, aptamer, all L-ribonucleotides) GCCGCACUGGUGGGUCGGUGGGAAGCGGC
The experiment is described as follows: ligand fluorescence enhancement. The note with it: 150 mM KCl; 10 mM LiCaco pH 7.0; 1 μM RNA, 1 μM ligand; higher in K+ than Li+.

The test system of experiment [12] is D-apt3.1i (RNA, aptamer) GCCGCACUGGUGGGUCGGUGGGAGGCGGC
The experiment is described as follows: ligand fluorescence enhancement. The note with it: 150 mM KCl; 10 mM LiCaco pH 7.0; 1 μM RNA, 1 μM ligand; higher in K+ than Li+.

For the compound `CCc1c(C)c2cc3nc(cc4nc(cc5c(CC)c(C)c(cc1[nH]2)n5C)C(C)=C4CCC(=O)O)C(CCC(=O)O)=C3C`, the binding entry was “no” in experiment [1]; “yes” in experiment [2]; “yes” in [3]; “no” in [4]; “yes” in experiment [5]; “yes” in experiment [6]. Besides, the binding entry in experiment [8] is on record as “yes”; in experiment [10], “no”; in experiment [11], “yes”; in [12] it was “yes”. The dissociation constant Kd in [7] was found to be 0.3774 ± 0.1006 µM. Further, the 50% inhibitory concentration (IC50) in [9] worked out at 10.7 ± 1.1 µM.
Regarding `Cc1ccc2c(c1)sc(-c1ccc(N(C)C)cc1)[n+]2C`, the binding result in [3] and in experiment [11] was “yes” in each case.
